Data on 13 compounds can be found in patent publication US20190248765A1, “COMPOUNDS, COMPOSITIONS, AND METHODS FOR INCREASING CFTR ACTIVITY” (Proteostasis Therapeutics, Inc., priority 2016, published 2019).

This assay concerns the target T1, ΔF508-CFTR (Homo sapiens, UniProt P13569, DEL508-508).
T1 construct: Primary lung epithelial cells homozygous for the Cystic Fibrosis-causing ΔF508 mutation were differentiated; endogenous in cells; host or cells: primary human lung/bronchial epithelial cells (hBE) homozygous for ΔF508, differentiated at an air-liquid interface
The experiment in a line: hBE Equivalent Current (Ieq) Assay. Format: cell-based. The note with it: Compound A at 3 uM, primary lung epithelial cells homozygous for ΔF508, 24 hours treatment. As for the experimental part:
ii. hBE Equivalent Current (Ieq) Assay
Primary lung epithelial cells homozygous for the Cystic Fibrosis-causing ΔF508 mutation were differentiated for a minimum of 4 weeks in an air-liquid interface on Costar 24 well HTS filter plates prior to the equivalent current (Ieq) measurements. Cells were apically mucus-washed for 30 minutes 24 h prior to treatment with compounds. The basolateral media was removed and replaced with media containing the compound of interest diluted to its final concentration from DMSO stocks. Treated cells were incubated at 37° C. and 5% CO2 for 24 hours. At the end of the treatment period, the media was changed to the Ieq experimental solution for 2 hours before the experiment and plates are maintained in a CO2-free incubator during this period. The plates containing the cells were then placed in pre-warmed heating blocks at 36° C.±0.5 for 15 minutes before measurements are taken. The transepithelial voltage (VT) and conductance (GT) were measured using a custom 24 channel current clamp (TECC-24) with 24 well electrode manifold. The Ieq assay measurements were made following additions with standardized time periods:
1. The baseline VT and GT values were measured for approximately 20 minutes.
2. Benzamil was added to block ENaC for 15 minutes.
3. Forskolin plus VX-770 were added to maximally activate ΔF508-CFTR for 27 minutes.
4. Bumetanide was added to inhibit the NaK2Cl cotransporter and shut-off secretion of chloride.
The activity data captured was the area under the curve (AUC) for the traces of the equivalent chloride current. The AUC was collected from the time of the forskolin/VX-770 addition until the inhibition by bumetanide addition. Correction in response to compound treatment was scored as the increase in the AUC for compound-treated samples over that of vehicle-treated samples.
(+ indicates activity<150% of a CFTR amplifier (Compound A) with compound at concentration shown and Compound A at 3 uM; ++ indicates activity>150% of a CFTR amplifier with compound at concentration shown and Compound A at 3 uM.

T1 sequence (P13569 with tags, fused parts or gaps DEL508-508): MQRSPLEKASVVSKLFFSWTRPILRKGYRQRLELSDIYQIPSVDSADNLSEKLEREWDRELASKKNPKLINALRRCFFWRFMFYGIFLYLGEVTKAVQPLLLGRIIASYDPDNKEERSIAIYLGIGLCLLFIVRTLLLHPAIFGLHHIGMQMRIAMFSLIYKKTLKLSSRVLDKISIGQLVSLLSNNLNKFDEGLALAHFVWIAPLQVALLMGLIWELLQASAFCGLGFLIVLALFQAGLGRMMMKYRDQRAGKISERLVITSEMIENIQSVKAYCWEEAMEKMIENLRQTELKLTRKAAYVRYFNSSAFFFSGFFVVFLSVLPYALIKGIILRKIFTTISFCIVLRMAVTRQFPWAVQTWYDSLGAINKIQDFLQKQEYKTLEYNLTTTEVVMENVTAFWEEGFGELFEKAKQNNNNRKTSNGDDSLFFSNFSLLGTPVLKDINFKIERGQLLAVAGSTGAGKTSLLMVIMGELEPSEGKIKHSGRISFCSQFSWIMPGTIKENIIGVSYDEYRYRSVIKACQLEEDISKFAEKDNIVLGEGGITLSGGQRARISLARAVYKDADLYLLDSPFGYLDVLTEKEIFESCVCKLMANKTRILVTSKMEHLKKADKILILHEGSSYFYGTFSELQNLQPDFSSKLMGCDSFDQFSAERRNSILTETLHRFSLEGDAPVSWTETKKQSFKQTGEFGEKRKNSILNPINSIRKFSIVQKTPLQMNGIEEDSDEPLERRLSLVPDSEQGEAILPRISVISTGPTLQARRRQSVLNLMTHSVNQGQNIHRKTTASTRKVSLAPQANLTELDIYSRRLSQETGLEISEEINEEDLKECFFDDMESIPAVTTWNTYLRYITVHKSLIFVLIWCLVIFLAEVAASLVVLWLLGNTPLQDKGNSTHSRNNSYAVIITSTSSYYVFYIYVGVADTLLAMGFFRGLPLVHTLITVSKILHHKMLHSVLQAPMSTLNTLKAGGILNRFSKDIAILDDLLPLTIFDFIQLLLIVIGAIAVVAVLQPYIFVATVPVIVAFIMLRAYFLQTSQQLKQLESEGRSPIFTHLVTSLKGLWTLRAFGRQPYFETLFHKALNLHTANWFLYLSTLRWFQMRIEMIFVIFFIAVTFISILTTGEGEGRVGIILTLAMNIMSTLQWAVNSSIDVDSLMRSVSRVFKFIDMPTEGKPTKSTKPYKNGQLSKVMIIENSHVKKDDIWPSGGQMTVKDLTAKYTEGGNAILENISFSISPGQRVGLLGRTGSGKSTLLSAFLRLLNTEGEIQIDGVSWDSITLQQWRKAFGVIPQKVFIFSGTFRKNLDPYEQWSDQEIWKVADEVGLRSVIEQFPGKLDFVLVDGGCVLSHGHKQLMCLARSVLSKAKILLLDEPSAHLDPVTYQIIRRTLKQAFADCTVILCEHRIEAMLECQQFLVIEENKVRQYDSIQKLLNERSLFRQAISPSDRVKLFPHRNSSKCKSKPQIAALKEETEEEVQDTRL

Take `COc1cccc(-c2ccc(=O)n(C(C)c3nc4ccccc4o3)n2)c1` (stereo not shown) [Compound 1, 2-[1-(1,3-benzoxazol-2-yl)ethyl]-6-(3-methoxyphenyl)-2,3-dihydropyridazin-3-one]: the “Activity (AUC of equivalent chloride current, relative to CFTR amplifier Compound A)” value reads like this: (compound at 3 μM) “+ (activity<150% of a CFTR amplifier (Compound A) with compound at concentration shown and Compound A at 3 uM)”; (compound at 10 μM) “+ (activity<150% of a CFTR amplifier (Compound A) with compound at concentration shown and Compound A at 3 uM)”. Turning to `COc1cccc(-c2ccc(=O)n(C(C)c3nc4ccccc4[nH]3)n2)c1` (stereo not shown) [Compound 2, 2-[1-(1H-1,3-benzodiazol-2-yl)ethyl]-6-(3-methoxyphenyl)-2,3-dihydropyridazin-3-one], the “Activity (AUC of equivalent chloride current, relative to CFTR amplifier Compound A)” value (compound at 10 μM) was “+ (activity<150% of a CFTR amplifier (Compound A) with compound at concentration shown and Compound A at 3 uM)”. In the case of `COc1cccc(-c2ccc(=O)n(C(C)c3nc4cc(C(F)(F)F)ccc4[nH]3)n2)c1` (stereo not shown) [Compound 3, 6-(3-Methoxyphenyl)-2-(1-(5-(trifluoromethyl)-1H-benzo[d]imidazol-2-yl)ethyl)pyridazin-3(2H)-one], the “Activity (AUC of equivalent chloride current, relative to CFTR amplifier Compound A)” value was “++ (activity>150% of a CFTR amplifier with compound at concentration shown and Compound A at 3 uM)” (compound at 3 μM); “++ (activity>150% of a CFTR amplifier with compound at concentration shown and Compound A at 3 uM)” (compound at 10 μM). As for `COc1cccc(-c2ccc(=O)n(C(C)c3nc4cc(C(C)(C)C)ccc4[nH]3)n2)c1` (stereo not shown) [Compound 4, 2-(1-(5-(tert-Butyl)-1H-benzo[d]imidazol-2-yl)ethyl)-6-(3-methoxyphenyl)pyridazin-3(2H)-one], the “Activity (AUC of equivalent chloride current, relative to CFTR amplifier Compound A)” value (compound at 3 μM) is “+ (activity<150% of a CFTR amplifier (Compound A) with compound at concentration shown and Compound A at 3 uM)”; the “Activity (AUC of equivalent chloride current, relative to CFTR amplifier Compound A)” value (compound at 10 μM) was “+ (activity<150% of a CFTR amplifier (Compound A) with compound at concentration shown and Compound A at 3 uM)”. For `COc1cccc(-c2ccc(=O)n(C(C)c3nc4cc(Cl)ccc4[nH]3)n2)c1` (stereo not shown) [Compound 5, 2-(1-(5-Chloro-1H-benzo[d]imidazol-2-yl)ethyl)-6-(3-methoxyphenyl)pyridazin-3(2H)-one], the “Activity (AUC of equivalent chloride current, relative to CFTR amplifier Compound A)” value is “+ (activity<150% of a CFTR amplifier (Compound A) with compound at concentration shown and Compound A at 3 uM)” (compound at 3 μM); “+ (activity<150% of a CFTR amplifier (Compound A) with compound at concentration shown and Compound A at 3 uM)” (compound at 10 μM). Turning to `CC(c1nc2cc(C(F)(F)F)ccc2[nH]1)n1nc(-c2cccc(Cl)c2)ccc1=O` (stereo not shown) [Compound 6, 6-(3-Chlorophenyl)-2-(1-(5-(trifluoromethyl)-1H-benzo[d]imidazol-2-yl)ethyl)pyridazin-3(2H)-one], the “Activity (AUC of equivalent chloride current, relative to CFTR amplifier Compound A)” value (compound at 3 μM) was “++ (activity>150% of a CFTR amplifier with compound at concentration shown and Compound A at 3 uM)”; the “Activity (AUC of equivalent chloride current, relative to CFTR amplifier Compound A)” value (compound at 10 μM) was “++ (activity>150% of a CFTR amplifier with compound at concentration shown and Compound A at 3 uM)”. As to `COc1cccc(-c2ccc(=O)n(C(C)c3nc4nc(C(F)(F)F)ccc4[nH]3)n2)c1` (stereo not shown) [Compound 7, 6-(3-Methoxyphenyl)-2-(1-(5-(trifluoromethyl)-1H-imidazo[4,5-b]pyridin-2-yl)ethyl)pyridazin-3(2H)-one], the “Activity (AUC of equivalent chloride current, relative to CFTR amplifier Compound A)” value reads like this: (compound at 3 μM) “+ (activity<150% of a CFTR amplifier (Compound A) with compound at concentration shown and Compound A at 3 uM)”; (compound at 10 μM) “+ (activity<150% of a CFTR amplifier (Compound A) with compound at concentration shown and Compound A at 3 uM)”. Turning to `COc1cccc(-c2ccc(=O)n(C(C)c3nc4cc(C(F)(F)F)cnc4[nH]3)n2)c1` (stereo not shown) [Compound 8, 6-(3-Methoxyphenyl)-2-(1-(6-(trifluoromethyl)-3H-imidazo[4,5-b]pyridin-2-yl)ethyl)pyridazin-3(2H)-one], the “Activity (AUC of equivalent chloride current, relative to CFTR amplifier Compound A)” value was “+ (activity<150% of a CFTR amplifier (Compound A) with compound at concentration shown and Compound A at 3 uM)” (compound at 3 μM); “+ (activity<150% of a CFTR amplifier (Compound A) with compound at concentration shown and Compound A at 3 uM)” (compound at 10 μM).

Regarding `COc1cccc(-c2ccc(=O)n(C(C)c3nc4cc(Cl)c(Cl)cc4[nH]3)n2)c1` (stereo not shown) [Compound 9, 2-(1-(5,6-Dichloro-1H-benzo[d]imidazol-2-yl)ethyl)-6-(3-methoxyphenyl)pyridazin-3(2H)-one], the “Activity (AUC of equivalent chloride current, relative to CFTR amplifier Compound A)” value (compound at 3 μM) is “++ (activity>150% of a CFTR amplifier with compound at concentration shown and Compound A at 3 uM)”; the “Activity (AUC of equivalent chloride current, relative to CFTR amplifier Compound A)” value (compound at 10 μM) was “++ (activity>150% of a CFTR amplifier with compound at concentration shown and Compound A at 3 uM)”. Take `CC(c1nc2cc(Cl)c(Cl)cc2[nH]1)n1nc(-c2cccc(Cl)c2)ccc1=O` (stereo not shown) [Compound 10, 6-(3-Chlorophenyl)-2-(1-(5,6-dichloro-1H-benzo[d]imidazol-2-yl)ethyl)pyridazin-3(2H)-one]: the “Activity (AUC of equivalent chloride current, relative to CFTR amplifier Compound A)” value runs as follows: (compound at 3 μM) “+ (activity<150% of a CFTR amplifier (Compound A) with compound at concentration shown and Compound A at 3 uM)”; (compound at 10 μM) “+ (activity<150% of a CFTR amplifier (Compound A) with compound at concentration shown and Compound A at 3 uM)”. With `COc1cccc(-c2ccc(=O)n(C(C)c3nnc(-c4ccccc4)[nH]3)n2)c1` (stereo not shown) [Compound 11, 6-(3-Methoxyphenyl)-2-[1-(5-phenyl-4H-1,2,4-triazol-3-yl)ethyl]-2,3-dihydropyridazin-3-one], the “Activity (AUC of equivalent chloride current, relative to CFTR amplifier Compound A)” value (compound at 10 μM) was “+ (activity<150% of a CFTR amplifier (Compound A) with compound at concentration shown and Compound A at 3 uM)”. On the same count and under the same terms, for `COc1cccc(-c2ccc(=O)n(C(C)c3nnc(-c4ccc(C(F)(F)F)cc4)[nH]3)n2)c1` (stereo not shown) [Compound 12, 6-(3-Methoxyphenyl)-2-(1-(5-(4-(trifluoromethyl)phenyl)-4H-1,2,4-triazol-3-yl)ethyl)pyridazin-3(2H)-one] the value was “+ (activity<150% of a CFTR amplifier (Compound A) with compound at concentration shown and Compound A at 3 uM)”; for `COc1cccc(-c2ccc(=O)n(C(C)c3nnc(-c4cccc(C(F)(F)F)c4)[nH]3)n2)c1` (stereo not shown) [Compound 13, 6-(3-Methoxyphenyl)-2-(1-(5-(3-(trifluoromethyl)phenyl)-4H-1,2,4-triazol-3-yl)ethyl)pyridazin-3(2H)-one], “+ (activity<150% of a CFTR amplifier (Compound A) with compound at concentration shown and Compound A at 3 uM)”.
